In patent US9073821B2, “Hydroxamic acid derivative” (priority 2010, dated 2015):

These compounds were tested against Pseudomonas aeruginosa LpxC enzyme (Pseudomonas aeruginosa (strain ATCC 15692 / DSM 22644 / CIP 104116 / JCM 14847 / LMG 12228 / 1C / PRS 101 / PAO1), UniProt P47205) (assay: biochemical). Settings: inhibitory activity on Pseudomonas aeruginosa LpxC enzyme, class symbols A/B/C; read-out: Enzyme inhibitory activity.
Type: biochemical

`O=C(NC(C(=O)NO)C(=O)NCCc1ccccn1)c1ccc(-c2ccc(OCCO)cc2)cc1` (centres unmarked) [Compound 151, N-hydroxy-2-({[4′-(2-hydroxyethoxy)biphenyl-4-yl]carbonyl}amino)-N′-[2-(pyridin-2-yl)ethyl]propanediamide] and `Cn1ccnc1CNC(=O)C(NC(=O)c1ccc(-c2ccc(OCCO)cc2)cc1)C(=O)NO` (centres unmarked) [Compound 156, N-hydroxy-2-({[4′-(2-hydroxyethoxy)biphenyl-4-yl]carbonyl}amino)-N′-[(1-methyl-1H-imidazol-2-yl)methyl]propanediamide] cannot be ordered by IC50: < 10 nM for the first, < 10 nM for the second.

`O=C1COc2ccc(CNC(=O)C(NC(=O)c3ccc(-c4ccc(OCCO)cc4)cc3)C(=O)NO)nc2N1` (centres unmarked) [Compound 152, N-hydroxy-2-({[4′-(2-hydroxyethoxy)biphenyl-4-yl]carbonyl}amino)-N′-[(3-oxo-3,4-dihydro-2H-pyrido[3,2-b][1,4]oxazin-6-yl)methyl]propanediamide] and `O=C(NC(C(=O)NO)C(=O)NCc1cocn1)c1ccc(-c2ccc(OCCO)cc2)cc1` (centres unmarked) [Compound 157, N-hydroxy-2-({[4′-(2-hydroxyethoxy)biphenyl-4-yl]carbonyl}amino)-N′-(1,3-oxazol-4-ylmethyl)propanediamide] cannot be ordered by IC50: < 10 nM for the first, < 10 nM for the second.

`CNC(=O)C(C(=O)NO)N(C(=O)c1ccc(-c2ccc(OCCO)cc2)cc1)C1CC1` (centres unmarked) [Compound 154, 2-(cyclopropyl {[4′-(2-hydroxyethoxy)biphenyl-4-yl]carbonyl}amino)-N-hydroxy-N′-methylpropanediamide] and `CNC(=O)C(C(=O)NO)N(C(=O)c1ccc(-c2ccccc2)cc1)C1CCC1` (centres unmarked) [Compound 163, 2-[(biphenyl-4-ylcarbonyl)(cyclobutyl)amino]-N-hydroxy-N′-methylpropanediamide] fall in the same range of IC50: 10 to 100 nM for the first, 10 to 100 nM for the second.

`Cc1nnc(CNC(=O)C(NC(=O)c2ccc(-c3ccc(OCCO)cc3)cc2)C(=O)NO)s1` (centres unmarked) [Compound 155, N-hydroxy-2-({[4′-(2-hydroxyethoxy)biphenyl-4-yl]carbonyl}amino)-N′-[(5-methyl-1,3,4-thiadiazol-2-yl)methyl]propanediamide] and `Cn1cnc(CNC(=O)C(NC(=O)c2ccc(-c3ccc(OCCO)cc3)cc2)C(=O)NO)c1` (centres unmarked) [Compound 158, N-hydroxy-2-({[4′-(2-hydroxyethoxy)biphenyl-4-yl]carbonyl}amino)-N′-[(1-methyl-1H-imidazol-4-yl)methyl]propanediamide] cannot be ordered by IC50: < 10 nM for the first, < 10 nM for the second.

Compared with `CCN(C(=O)c1ccc(-c2ccccc2)cc1)C(C(=O)NC)C(=O)NO` (centres unmarked) [Compound 159, 2-[(biphenyl-4-ylcarbonyl)(ethyl)amino]-N-hydroxy-N′-methylpropanediamide], `CNC(=O)C(C)(NC(=O)c1ccc(-c2ccccc2)cc1)C(=O)NO` (centres unmarked) [Compound 164, 2-[(Biphenyl-4-ylcarbonyl)amino]-N-hydroxy-N′,2-dimethylpropanediamide] is higher in IC50: 10 to 100 nM for the first, > 100 nM for the second.

Compared with `O=C(NC(C(=O)NO)C(=O)NCC1CN(Cc2ccccc2)CCO1)c1ccc(-c2ccc(OCCO)cc2)cc1` (centres unmarked) [Compound 160, N-[(4-benzylmorpholin-2-yl)methyl]-N′-hydroxy-2-({[4′-(2-hydroxyethoxy)biphenyl-4-yl]carbonyl}amino)propanediamide], `O=C(NC(C(=O)NO)C(=O)NCC1CNCCO1)c1ccc(-c2ccc(OCCO)cc2)cc1` (centres unmarked) [Compound 162, N-hydroxy-2-({[4′-(2-hydroxyethoxy)biphenyl-4-yl]carbonyl}amino)-N′-(morpholin-2-ylmethyl)propanediamide] is higher in IC50: < 10 nM for the first, 10 to 100 nM for the second.

Compared with `CN(C(=O)c1ccc(-c2ccccc2)cc1)C(C(=O)NO)C(=O)NCc1ccccn1` (centres unmarked) [Compound 161, 2-[(biphenyl-4-ylcarbonyl)(methyl)amino]-N-hydroxy-N′-(pyridin-2-ylmethyl)propanediamide], `CNC(=O)C(C(=O)NO)N(C)C(=O)c1ccc(-c2ccc(CCCO)cc2)cc1` (centres unmarked) [Compound 165, N-hydroxy-2-[{[4′-(3-hydroxypropyl)biphenyl-4-yl]carbonyl}(methyl)amino]-N′-methylpropanediamide] is lower in IC50: 10 to 100 nM for the first, < 10 nM for the second. The second is the more potent here.
